In US4791139A, “Diphenyl ether derivatives and their use as insecticides” (Imperial Chemical Industries PLC, priority 1986, dated 1988):

What was measured:
Type in all cases: in vivo
[1] = test system: Heliothis virescens (tobacco budworm - larvae); assay: Residual test, tobacco budworm - larvae (HV), Cotton leaf; settings: 72 h, read-out: HV grading of mortality
Method: (§1) The activity of the Product was determined using a variety of insect pests. The Product was used in the form of liquid preparations containing from 100 to 500 parts per million (ppm) by weight of the Product. The preparations were made by dissolving the Product in acetone and diluting the solutions with water containing 0.1% by weight of a wetting agent sold under the trade name "SYNPERONIC" NX until the liquid preparations contained the required concentration of the Product. "SYNPERONIC" is a Registered Trade Mark.
(§2) The test procedure adopted with regard to each pest was basically the same and comprised supporting a number of the pests on a medium which was usually a host plant or a foodstuff on which the pests feed, and treating either or both the pests and the medium with the preparations. The mortality of the pests was then assessed at periods usually varying from one to seven days after the treatment.
(§3) The results of the tests are given in Table III for each of the Products, at the rate in parts per million given in the second column as a grading of mortality designated as A, B or C wherein A indicates 80-100% mortality or knockdown (70-100% for Meloidogyne incognita), B indicates 50-79% mortality knockdown or knockdown (50-69% for Meloidogyne incognita) and C indicates less than 50% mortality or knockdown.
(§4) In Table III the pest organism used is designated by a letter code and the pests species, the support medium or food, and the type and duration of test is given in Table II.
(tobacco budworm - larvae)

Myzus persicae (aphids) = assay: Contact test, aphids (MP), Chinese Cabbage leaf; settings: 72 h, 3 days, read-out: MP grading of mortality
Method: The activity of the Product was determined using a variety of insect pests. The Product was used in the form of liquid preparations containing from 100 to 500 parts per million (ppm) by weight of the Product. The preparations were made by dissolving the Product in acetone and diluting the solutions with water containing 0.1% by weight of a wetting agent sold under the trade name "SYNPERONIC" NX until the liquid preparations contained the required concentration of the Product. "SYNPERONIC" is a Registered Trade Mark. The test procedure adopted with regard to each pest was basically the same and comprised supporting a number of the pests on a medium which was usually a host plant or a foodstuff on which the pests feed, and treating either or both the pests and the medium with the preparations. The mortality of the pests was then assessed at periods usually varying from one to seven days after the treatment. […] In Table III the pest organism used is designated by a letter code and the pests species, the support medium or food, and the type and duration of test is given in Table II.

[2] = test system: Nilaparvata lugens (brown plant hopper - nymphs); assay: Contact test, brown plant hopper - nymphs (NL), Rice plant; settings: 72 h, 3 days, read-out: NL grading of mortality
Method: (§5) The activity of the Product was determined using a variety of insect pests. The Product was used in the form of liquid preparations containing from 100 to 500 parts per million (ppm) by weight of the Product. The preparations were made by dissolving the Product in acetone and diluting the solutions with water containing 0.1% by weight of a wetting agent sold under the trade name "SYNPERONIC" NX until the liquid preparations contained the required concentration of the Product. "SYNPERONIC" is a Registered Trade Mark. The test procedure adopted with regard to each pest was basically the same and comprised supporting a number of the pests on a medium which was usually a host plant or a foodstuff on which the pests feed, and treating either or both the pests and the medium with the preparations. The mortality of the pests was then assessed at periods usually varying from one to seven days after the treatment.

[3] = test system: Tetranychus urticae (spider mites - adult); assay: Contact test, spider mites - adult (TUa), French bean leaf; settings: 72 h, 3 days, read-out: TUA grading of mortality
Method: as §5

[4] = test system: Spodoptera exigua (lesser army worm - larvae); assay: Residual test, lesser army worm - larvae (SP), Cotton leaf; settings: 72 h, 3 days, read-out: SP grading of mortality
Method: as §1, §2, §3, §4
(lesser army worm - larvae)

[5] = test system: Tetranychus urticae (spider mites - ova); assay: Contact test, spider mites - ova (TUe), French bean leaf; settings: 144 h, 6 days, read-out: TUE grading of mortality
Method: as §5

[6] = test system: Diabrotica balteata (rootworm larvae); assay: Residual test, rootworm larvae (DB), Filter paper/maize seed; settings: 72 h, 3 days, read-out: DB grading of mortality
Method: as §5

[7] = test system: Blattella germanica (cockroach nymphs); assay: Residual test, cockroach nymphs (BG), Plastic pot; settings: 72 h, 3 days, read-out: BG grading of mortality
Method: as §5

[8] = test system: Musca domestica (houseflies - adults); assay: Knockdown test, houseflies - adults (MD/KD), Cotton wool/sugar; settings: 4 hours, read-out: MD/KD grading of knockdown
Method: as §1, §2
In the case of the species Musca domestica (housefly), an additional assessment to determine the knockdown effect of the compounds was performed.
as §4

[9] = test system: Musca domestica (houseflies - adults); assay: Contact test, houseflies - adults (MD), Cotton wool/sugar; settings: 24 h, 1 day, read-out: MD grading of mortality
Method: as §5

[10] = test system: Meloidogyne incognita (Tomato root knot eelworm - larvae); assay: Residual test, Tomato root knot eelworm - larvae (MI), Semi in-vitro; settings: 168 h, application rate is half that recorded, 7 days, read-out: MI grading of mortality; for mortality at 250 µg/mL: rate column 500 ppm

Row | Compound | mortality at 500 ppm [1] | mortality at 500 ppm (Myzus persicae (aphids)) | mortality at 500 ppm [2] | mortality at 500 ppm [3] | mortality at 500 ppm [4] | mortality at 500 ppm [5] | mortality at 500 ppm [6] | mortality at 500 ppm [7] | pest or weed control at 500 ppm [8] | mortality at 500 ppm [9] | further results
1 | FC(F)(F)C(CCCc1cccc(Oc2ccccc2)c1)c1ccc2c(c1)OCO2 (stereo not shown) [Compound 40, 1,1,1-Trifluoro-2-(3,4-methylenedioxy)phenyl-5-(3-phenoxyphenyl)pentane] | 80 to 100% | 80 to 100% | < 50% | < 50% | 80 to 100% | < 50% | 80 to 100% | 50 to 79% | 80 to 100% | 80 to 100% | 
2 | Fc1cc(Br)c(C(=CC=Cc2cccc(Oc3ccccc3)c2)C(F)(F)F)c(F)c1OC(F)(F)F [Compound 74, 1,1,1-Trifluoro-2-(2-bromo-4,6-difluoro-5-trifluoromethoxyphenyl)-5-(3-phenoxyphenyl)penta-2,4-diene] | < 50% | < 50% | < 50% | 50 to 79% | < 50% | < 50% | < 50% | < 50% | < 50% | < 50% | mortality at 250 µg/mL [10]: < 50%
3 | Fc1ccc(C=CC=C(c2ccc(OC(F)(F)F)cc2)C(F)(F)Cl)cc1Oc1ccccc1 [Compound 76, 1,1-Difluoro-1-chloro-2-(4-trifluoromethoxyphenyl)-5-(4-fluoro-3-phenoxyphenyl)penta-2,4-diene] | < 50% | < 50% | 80 to 100% | < 50% | < 50% | < 50% | 80 to 100% | < 50% | < 50% | < 50% | mortality at 250 µg/mL [10]: < 50%
4 | FC(F)(F)C(=CCCc1cccc(Oc2ccccc2)c1)c1ccc2c(c1)OCO2 [Compound 41, 1,1,1-Trifluoro-2-(3,4-methylenedioxyphenyl)-5-(3-phenoxyphenyl)pent-2-ene] | 50 to 79% | < 50% | < 50% | < 50% | 50 to 79% | < 50% | 80 to 100% | < 50% | 80 to 100% | 80 to 100% | 
5 | CC1Oc2ccc(C(CCCc3cccc(Oc4ccccc4)c3)C(F)(F)F)cc2O1 (stereo not shown) [Compound 61, 1,1,1-Trifluoro-2-[3,4-(methylmethylenedioxy)-phenyl]-5-(3-phenoxyphenyl)pentane] | 80 to 100% | 80 to 100% | 80 to 100% | < 50% | 80 to 100% | < 50% | 80 to 100% | 80 to 100% | 80 to 100% | 80 to 100% | mortality at 250 µg/mL [10]: < 50%
6 | Fc1ccc(C(CCCc2cccc(Oc3ccccc3)c2)C(F)(F)F)cc1 (racemic) [Compound 53, 1,1,1-Trifluoro-2-(4-fluorophenyl)-5-(3-phenoxyphenyl)pentane] |  |  |  |  |  |  |  |  |  |  | mortality at 250 ppm [1]: 80 to 100%; mortality at 250 ppm (Myzus persicae (aphids); 250 ppm): 80 to 100%; mortality at 250 ppm ([2]; 250 ppm): 80 to 100%; mortality at 250 ppm ([3]; 250 ppm): 80 to 100%; mortality at 250 ppm ([4]; 250 ppm): 80 to 100%; mortality at 250 ppm ([5]; 250 ppm): < 50%; mortality at 250 ppm ([6]; 250 ppm): 80 to 100%; mortality at 250 ppm ([7]; 250 ppm): 80 to 100%; pest or weed control at 250 ppm ([8]; 250 ppm): < 50%; mortality at 125 µg/mL ([10]; rate 250 ppm): < 50%; mortality at 250 ppm ([9]; 250 ppm): 80 to 100%
7 | Fc1ccc(CCCC(c2ccc(OC(F)(F)F)cc2)C(F)(F)F)cc1Cc1ccccc1 (stereo not shown) [Compound 108] | 80 to 100% | 80 to 100% | 80 to 100% | 80 to 100% | 80 to 100% | 80 to 100% | < 50% | 80 to 100% | 80 to 100% | 80 to 100% | 
8 | FC(F)C(CCCc1cccc(Oc2ccccc2)c1)c1ccc(OC(F)(F)F)cc1 (racemic) [Compound 83, 1,1-Difluoro-2-(4-trifluoromethoxyphenyl)-5-(3-phenoxyphenyl)pentane] | 80 to 100% | 80 to 100% | 80 to 100% | 80 to 100% | 80 to 100% | 80 to 100% | 80 to 100% | 80 to 100% | 80 to 100% | 80 to 100% | 
9 | CCOc1ccc(C(=CC=Cc2ccc(F)c(Cc3ccccc3)c2)C(F)(F)F)cc1 [Compound 107, 1,1,1-Trifluoro-2-(4-ethoxyphenyl)-5-(4-fluoro-3-benzylphenyl)penta-2,4-diene] | < 50% | 80 to 100% | 50 to 79% | < 50% | 80 to 100% | < 50% | 80 to 100% | < 50% | < 50% | < 50% | 
10 | CCOc1ccc(C(CCCc2cccc(Oc3ccccc3)n2)C(F)(F)F)cc1 (stereo not shown) [Compound 98] | 80 to 100% | 80 to 100% | < 50% | 80 to 100% | 80 to 100% | < 50% | 80 to 100% | 80 to 100% | 80 to 100% | 80 to 100% | 
11 | Fc1ccc(C=CC=C(c2ccc(OC(F)(F)F)cc2)C(F)(F)F)cc1Cc1ccccc1 [Compound 105, 1,1,1-Trifluoro-2-(4-trifluoromethoxyphenyl)-5-(4-fluoro-3-benzylphenyl)penta-2,4-diene] | < 50% | 80 to 100% | 80 to 100% | 80 to 100% | 80 to 100% | 80 to 100% | 80 to 100% | 80 to 100% | < 50% | < 50% | 
12 | CCOc1ccc(C(CCCc2ccc(F)c(Cc3ccccc3)c2)C(F)(F)F)cc1 (racemic) [Compound 106, 1,1,1-Trifluoro-2-(4-ethoxyphenyl)-5-(3-benzyl-4-fluorophenyl)pentane] | 80 to 100% | 80 to 100% | 80 to 100% | 80 to 100% | 80 to 100% | 80 to 100% | 80 to 100% | 80 to 100% | 80 to 100% | 80 to 100% | 
